# pEC50: −log10 of the molar value. “Also recorded” adds a separate entry of the source. Where two headings read alike, the source gives them in different places. Non-standard residues stand in square brackets, D forms with d. Primed or numbered codes have the meaning given here. No end group written: not given here. PEG5′ = linker of 5 PEG units between residues
# Assays:
# [1] = system: mouse bone marrow derived macrophages (BMDMs); assay: Phagocytosis of anti-TYRP1 opsonized B16F10 melanoma cells by mouse bone marrow derived macrophages; type: cell-based
# Protocol: B16F10 cells: Bone marrow cells were isolated from femurs and tibias of healthy C57BL6/J mice (The Jackson Laboratory) and cultured in 10-cm petri dishes containing IMDM (Gibco) supplemented with 10% v/v FBS, 1% v/v penicillin/streptomycin, and 1:10,000 macrophage colony stimulating factor cytokine (M-CSF; Biolegend) for 7 days at 37° C., 5% CO2 and 95% humidity. All animal experiments were performed according to protocols approved by the University of Pennsylvania's IACUC (protocol #805977 and #804455). The resulting mouse bone marrow derived macrophages (BMDMs) were washed with PBS containing Ca2^+/Mg2^+ (Gibco) then detached with 0.25% trypsin-EDTA (Gibco) and re-plated in 6-well tissue culture plates using IMDM+M-CSF for 24 hours.
# Mouse melanoma B16F10 cells were washed with PBS containing Ca2-/Mg2- and then trypsinized with 0.05% trypsin-EDTA. After washing twice with PBS, the cells were labeled with 1:10,000 CFDA—SE (Thermo Fisher) in PBS for 10 minutes. B16F10 cells were opsonized with 10 μg/mL anti-TYRP1 (TA99; Bio X Cell) in PBS for 2 hours at 4° C.with occasional inverting. For CD47 blocked B16F10 cells, 5 μg/mL of […] were added. During the incubation time, the BMDMs were washed with media then stained with 1:2,000 CellTracker Deep Red (Thermo Fisher) in PBS with Ca2^+/Mg2^+ for 10 min. After washing, 50 μM of the nano—Self peptides were incubated with the BMDMs for 1 hour at 37° C., 5% CO2 and 95% humidity. Finally, BMDMs were washed twice with PBS and then twice with serum-free IMDM.
# Without removing the supernatant, the opsonized melanoma cells were added to the labeled BMDMs at a ratio of 2:1 for 2 hours at 37° C., 5% CO2 and 95% humidity. During the last 15 minutes of the assay, the cells were Hoechst stained. The wells were washed with serum free IMDM then fixed with 4% formaldehyde for 15 minutes at RT, and PBS washed. Fluorescence imaging was performed using an Olympus IX71 with a digital EMCCD camera (Cascade 512B) and a 40×/0.6 NA objective. Quantification was done with ImageJ (NIH). At least 200 cells were analyzed and two-tailed student's t-test was used to determine statistical significance.
# [2] = system: human THP-1 macrophages; assay: In vitro phagocytosis assay: opsonized human RBCs engulfed by peptide-treated THP-1 macrophages; type: cell-based; settings: for pEC50: opsonized human RBCs, human macrophages
# Protocol: In vitro phagocytosis assay. Fresh human RBCs were washed twice with 50 mM EDTA (Thermo Fischer) in PBS (Gibco) then twice with 5% FBS in PBS. RBCs were opsonized with 20 μg/mL rabbit anti-human RBC antibody (Rockland) in 5% FBS for 1 hour at RT with shaking. For CD47 blocked RBCs, 5 μg/mL of mouse anti-human CD47 (B6H12; BD Biosciences) were added. Thereafter, RBCs were washed with PBS three times and stained with PKH26 dye (1:800 dilution in PBS; Sigma) for 1 hour at RT with shaking in the dark. RBCs were washed and resuspended in PBS.
# THP-1 monocytes were PMA differentiated in RPMI for 48 hours. Macrophages were then washed with RPMI media three times. For SIRPα blocked THP-1 macrophages, 20 nM, 1 μM or 50 μM of the nano—Self peptides were incubated with the THP-1 macrophages for 1 hour at 37 ° C., 5% CO2 and 95% humidity. Those THP-Is were then washed with RPMI three times.
# CO2 and 95% humidity. Macrophages were then washed with RPMI three times. Adherent and uninternalized RBCs were lysed with water for 30 seconds followed by immediate replacement with RPMI media. In order to distinguish remaining adherent RBCs from internalized RBCs, opsonized RBCs were stained with AlexaFluor 647 donkey anti-rabbit (binds to rabbit polyclonal opsonin on RBC; Invitrogen) IgG (1:1000) while unopsonized, CD47 blocked RBCs were stained with AlexaFluor 647 donkey anti-mouse (binds to mouse monoclonal anti-CD47 on RBCs; Invitrogen) IgG (1:1000) for 30 minutes. After washing, macrophages were fixed with 4% formaldehyde for 15 minutes at RT, washed with PBS, stained with 1 μg/mL Hoechst 33342, and then washed with PBS again. Fluorescence imaging was performed as described elsewhere herein and quantification was done using ImageJ. At least 200 cells were analyzed and experiments were repeated at least three times.
# [3] = system: A549 (SIRPα positive) cells; assay: Confocal live staining with FAM-labeled peptides, A549 cells; type: binding, human; settings: 100 uM and 1 μM FAM-labeled peptide
# Protocol: SIRPα staining and confocal imaging. THP-1 monocytes were PMA-differentiated in RPMI 1640 for 24 hours. J774A.1, A549, and COS-1 cells were plated for 24 hours in media, respectively. Cells were washed with respective media prior to addition of fluorescent peptides. The peptides were left to incubate for 1 hour at 37 ° C., 5% CO2 and 95% humidity. For fixed cell staining, cells were incubated with 4% formaldehyde (Pierce) for 15 minutes prior to the addition of fluorescent peptides whereas for live cell staining, fixation was done after incubation with the FAM-labeled peptides. Nuclei were stained with 1 μg/mL Hoechst 33342 (Invitrogen). Cells were the washed PBS three times before analysis. Fluorescence imaging of fixed cells was performed using an Olympus IX71 with a digital EMCCD camera (Cascade 512B) and a 40×/0.6 NA objective. […] Quantification was done with ImageJ (NIH).
# In order to visualize the uneven binding of the peptides to the surface of the macrophages, a live staining experiment of THP-1, J774A.1, and A549 cells, which all express SIRPα at different levels, was performed with FAM-labeled nS-wt and nS-X and analyzed by confocal microscopy (FIG. 11). […] Fluorescence of nS-X was consistently lower on THP-1 and J774A.1 macrophages relative to nS-wt. […]
substance,measurement,setting,value
"(VTELFREG-PEG5)2-K (VTELFREG[PEG5′]K[PEG5′]GERFLETV; not fully specified; also: bivalent lysine core) [nS-FF, bivalent nS-F linked through PEG5 linkers to a C-terminal Lys]",activity of bivalent peptide in primary mouse macrophages,[1],low activity; also recorded: reduced activity with mouse macrophages
same,effect on phagocytosis of opsonized RBCs (words),[2]; 20 nM peptide,successful in activating THP-1 to engulf opRBCs; also recorded: more potent in enhancing phagocytosis
same,macrophages with at least one opsonized RBC internalized,"[2]; 20 nM peptide, anti-RBC opsonized RBCs, 1 h assay",~40%
same,increase in phagocytosis at higher concentration,"[2]; 1 μM, 50 µM versus 20 nM",~5%
same,pEC50,[2]; read-out: efficacy constant (Keff) for phagocytosis,~8.10
"VTELTREG [nS-wt, 8-amino acid wild type nano-Self peptide from the CD47 loop, C-terminal amide]",binding to A549 cells,[3],binding was observed at 100 uM on A549 cells all around the surface
same,effect on phagocytosis of opsonized WT and SIRPα KO B16 cells,[1]; 50 μM peptide,lower levels
same,macrophages containing opsonized RBCs,"[2]; maximum peptide concentration 50 μM, anti-RBC opsonized RBCs",~30%
same,pEC50,[2]; read-out: effective potency (keff) for phagocytosis,~6.00
same,effect on phagocytosis of opsonized RBCs (words),[2]; saturating / 50 μM peptide,least effective among monovalents; also recorded: Lower levels of phagocytosis; also recorded: gives the same result as anti-CD47

# Source: US20240158448A1, “MULTIVALENT NANO-'SELF' PEPTIDES AND USES THEREOF” (THE TRUSTEES OF THE UNIVERSITY OF PENNSYLVANIA, priority 2021, published 2024)
